Assay results as given in ChEMBL document CHEMBL1142143, “Library screen for inhibitors targeting norovirus binding to histo-blood group antigen receptors” (Antimicrob Agents Chemother, 2007).
pEC50: −log10 of the molar value. In brackets after ≈: the same amount, converted by molar mass. One block for each compound: values may come before it.

Legend:
Norovirus [1] = test: Inhibition of recombinant norovirus VA387 binding to human HBGA A antigen by EIA; type: functional
Norovirus [2] = test: Inhibition of recombinant norovirus Norwalk binding to human HBGA A antigen by EIA; type: functional
Norovirus [3] = test: Inhibition of recombinant norovirus Norwalk binding to human HBGA H antigen by EIA; type: functional
Norovirus [4] = test: Inhibition of recombinant norovirus VA207 binding to human HBGA Le antigen by EIA; type: functional
Norovirus [5] = test: Inhibition of recombinant norovirus MOH binding to human HBGA B antigen by EIA; type: functional
Norovirus [6] = test: Inhibition of recombinant norovirus MOH binding to human HBGA A antigen by EIA; type: functional
Norovirus [7] = test: Inhibition of recombinant norovirus VA387 binding to human HBGA H antigen by EIA; type: functional
[8] = Solubility of the compound; type: physicochemical
Norovirus [9] = test: Inhibition of norovirus recombinant VA387 binding to human HBGA B antigen by EIA; type: functional
[10] = Cytotoxicity against HeLa cells by MTS assay; type: cell-based; conditions: human
Norovirus [11] = test: Inhibition of norovirus VA387 binding to HBGA A type antigen in human saliva at 2.2 uM by EIA; type: functional
Norovirus [12] = test: Inhibition of norovirus VA387 binding to HBGA A type antigen in human saliva at 12.8 uM by EIA; type: functional
Norovirus [13] = test: Inhibition of norovirus VA387 binding to HBGA A type antigen in human saliva at 9.3 uM by EIA; type: functional
Norovirus [14] = test: Inhibition of norovirus VA387 binding to HBGA A type antigen in human saliva at 11.7 uM by EIA; type: functional
Norovirus [15] = test: Inhibition of norovirus VA387 binding to HBGA A type antigen in human saliva at 4.8 uM by EIA; type: functional
Norovirus [16] = test: Inhibition of norovirus VA387 binding to HBGA A type antigen in human saliva at 9.1 uM by EIA; type: functional
Norovirus [17] = test: Inhibition of norovirus VA387 binding to HBGA A type antigen in human saliva at 13.6 uM by EIA; type: functional
Norovirus [18] = test: Inhibition of norovirus VA387 binding to HBGA A type antigen in human saliva at 11.8 uM by EIA; type: functional
Norovirus [19] = test: Inhibition of norovirus VA387 binding to HBGA A type antigen in human saliva at 8.1 uM by EIA; type: functional
Norovirus [20] = test: Inhibition of norovirus VA387 binding to HBGA A type antigen in human saliva at 13.7 uM by EIA; type: functional
Norovirus [21] = test: Inhibition of norovirus VA387 binding to HBGA A type antigen in human saliva at 10.9 uM by EIA; type: functional
Norovirus [22] = test: Inhibition of norovirus VA387 binding to HBGA A type antigen in human saliva at 9.6 uM by EIA; type: functional

Structure (SMILES): CCCCc1ccc(NC(=O)c2ccc(C)cc2)cc1
- pEC50 (Norovirus [1]): 4.89
- pEC50 (Norovirus [2]): 4.28
- pEC50 (Norovirus [3]): 4.32
- pEC50 (Norovirus [4]): < 4.00
- pEC50 (Norovirus [5]): < 4.00
- pEC50 (Norovirus [6]): < 4.00
- pEC50 (Norovirus [7]): 4.55
- inhibition at 12.8 µM (Norovirus [12]): 54.3%
- solubility [8]: 400 µM (≈ 107 µg/mL)
- pEC50 (Norovirus [9]): 4.49
- CC50 [10]: 180 µM

Structure (SMILES): Cc1ccc(NC(=O)CC(c2ccccc2)c2ccccc2)cc1C
- pEC50 (Norovirus [1]): 4.93
- pEC50 (Norovirus [2]): < 4.00
- pEC50 (Norovirus [3]): < 4.00
- pEC50 (Norovirus [4]): < 4.00
- inhibition at 11.7 µM (Norovirus [14]): 51.4%
- pEC50 (Norovirus [5]): < 4.00
- pEC50 (Norovirus [6]): < 4.00
- pEC50 (Norovirus [7]): 4.32
- solubility [8]: > 100 µM
- pEC50 (Norovirus [9]): < 4.00
- CC50 [10]: 40.3 µM

Structure (SMILES): CCOC(=O)C1=C(C)OC(N)=C(C#N)C1c1ccc(OCc2ccc(C)cc2)c([N+](=O)[O-])c1 (stereo not drawn)
- pEC50 (Norovirus [1]): 5.32
- pEC50 (Norovirus [2]): 4.64
- pEC50 (Norovirus [3]): 4.61
- inhibition at 4.8 µM (Norovirus [15]): 61.1%
- pEC50 (Norovirus [4]): < 4.00
- pEC50 (Norovirus [5]): 4.88
- pEC50 (Norovirus [6]): 4.78
- pEC50 (Norovirus [7]): 4.92
- solubility [8]: 400 µM (≈ 180 µg/mL)
- pEC50 (Norovirus [9]): 4.73
- CC50 [10]: 78.6 µM

Structure (SMILES): CCCc1ccc(OCc2ccc(C(=O)N/N=C/c3ccc(Cl)cc3O)o2)cc1
- pEC50 (Norovirus [1]): 5.04
- pEC50 (Norovirus [2]): 4.74
- pEC50 (Norovirus [3]): 4.44
- pEC50 (Norovirus [4]): < 4.00
- pEC50 (Norovirus [5]): < 4.00
- pEC50 (Norovirus [6]): < 4.00
- pEC50 (Norovirus [7]): 5.14
- inhibition at 9.1 µM (Norovirus [16]): 62.9%
- solubility [8]: 400 µM (≈ 165 µg/mL)
- pEC50 (Norovirus [9]): 4.87
- CC50 [10]: 46.7 µM

Structure (SMILES): Cc1cc(O)c(Sc2c(O)cc(C)cc2C(C)(C)c2ccccc2)c(C(C)(C)c2ccccc2)c1
- pEC50 (Norovirus [1]): 4.87
- inhibition at 13.6 µM (Norovirus [17]): 48.9%
- pEC50 (Norovirus [2]): < 4.00
- pEC50 (Norovirus [3]): < 4.00
- pEC50 (Norovirus [4]): < 4.00
- pEC50 (Norovirus [5]): < 4.00
- pEC50 (Norovirus [6]): < 4.00
- pEC50 (Norovirus [7]): 4.32
- solubility [8]: 400 µM (≈ 193 µg/mL)
- pEC50 (Norovirus [9]): 4.31
- CC50 [10]: 70.6 µM

Structure (SMILES): Oc1ccc(/C=N/c2nccs2)c(O)c1
- pEC50 (Norovirus [1]): 5.02
- pEC50 (Norovirus [2]): < 4.00
- pEC50 (Norovirus [3]): < 4.00
- pEC50 (Norovirus [4]): < 4.00
- pEC50 (Norovirus [5]): < 4.00
- pEC50 (Norovirus [6]): < 4.00
- inhibition at 9.6 µM (Norovirus [22]): 45.3%
- pEC50 (Norovirus [7]): 5.12
- solubility [8]: 400 µM (≈ 88.1 µg/mL)
- pEC50 (Norovirus [9]): 4.59
- CC50 [10]: 324 µM

Further compounds by rising pEC50 (Norovirus [1]), results first:

- pEC50 (Norovirus [1]): 4.86
- pEC50 (Norovirus [2]): < 4.00
- pEC50 (Norovirus [3]): < 4.00
- pEC50 (Norovirus [4]): < 4.00
- pEC50 (Norovirus [5]): < 4.00
- pEC50 (Norovirus [6]): < 4.00
- pEC50 (Norovirus [7]): < 4.00
- solubility [8]: > 100 µM
- pEC50 (Norovirus [9]): < 4.00
Structure (SMILES): CCCOc1ccc(-c2cc(C(=O)N/N=C/c3ccc(OCC)cc3)[nH]n2)cc1
- inhibition at 13.7 µM (Norovirus [20]): 51.1%
- CC50 [10]: 12.3 µM

- pEC50 (Norovirus [1]): 4.89
- pEC50 (Norovirus [2]): < 4.00
- pEC50 (Norovirus [3]): < 4.00
- pEC50 (Norovirus [4]): < 4.00
- pEC50 (Norovirus [5]): < 4.00
- pEC50 (Norovirus [6]): < 4.00
- pEC50 (Norovirus [7]): 4.58
- solubility [8]: 400 µM (≈ 265 µg/mL)
- pEC50 (Norovirus [9]): 4.45
Structure (SMILES): O=C(C(=O)c1ccc(C(=O)c2ccc(C(=O)C(=O)c3ccc(Sc4ccccc4)cc3)cc2)cc1)c1ccc(Sc2ccccc2)cc1
- inhibition at 12.8 µM (Norovirus [12]): 46.1%
- CC50 [10]: 263 µM

- pEC50 (Norovirus [1]): 4.93
- pEC50 (Norovirus [2]): 4.46
- pEC50 (Norovirus [3]): 4.70
- pEC50 (Norovirus [4]): < 4.00
- pEC50 (Norovirus [5]): < 4.00
- pEC50 (Norovirus [6]): < 4.00
- pEC50 (Norovirus [7]): 5.12
- solubility [8]: 400 µM (≈ 182 µg/mL)
- pEC50 (Norovirus [9]): 5.10
Structure (SMILES): CC(C)OC(=O)CC(=O)CSc1nc(-c2ccc(F)cc2)cc(-c2cccs2)c1C#N
- inhibition at 11.8 µM (Norovirus [18]): 50.9%
- CC50 [10]: 220 µM

- pEC50 (Norovirus [1]): 4.96
- pEC50 (Norovirus [2]): < 4.00
- pEC50 (Norovirus [3]): < 4.00
- pEC50 (Norovirus [4]): < 4.00
- pEC50 (Norovirus [5]): < 4.00
- pEC50 (Norovirus [6]): < 4.00
- pEC50 (Norovirus [7]): < 4.00
- solubility [8]: 400 µM (≈ 140 µg/mL)
- pEC50 (Norovirus [9]): < 4.00
Structure (SMILES): O=C(/C=C/c1ccc(-c2cc(Cl)cc(Cl)c2)o1)c1cccs1
- inhibition at 10.9 µM (Norovirus [21]): 49%
- CC50 [10]: 157 µM

- pEC50 (Norovirus [1]): 5.03
- pEC50 (Norovirus [2]): < 4.00
- pEC50 (Norovirus [3]): < 4.00
- pEC50 (Norovirus [4]): < 4.00
- pEC50 (Norovirus [5]): < 4.00
- pEC50 (Norovirus [6]): < 4.00
- pEC50 (Norovirus [7]): 4.39
- solubility [8]: 400 µM (≈ 111 µg/mL)
- pEC50 (Norovirus [9]): 4.35
Structure (SMILES): O=CC(=O)c1ccc2c(c1)Cc1cc(C(=O)C=O)ccc1-2
- inhibition at 9.3 µM (Norovirus [13]): 53.8%
- CC50 [10]: 52.7 µM

- pEC50 (Norovirus [1]): 5.09
- pEC50 (Norovirus [2]): 4.85
- pEC50 (Norovirus [3]): 4.65
- pEC50 (Norovirus [4]): < 4.00
- pEC50 (Norovirus [5]): < 4.00
- pEC50 (Norovirus [6]): < 4.00
- pEC50 (Norovirus [7]): 4.85
- solubility [8]: 400 µM (≈ 198 µg/mL)
- pEC50 (Norovirus [9]): 4.88
Structure (SMILES): C=C(SCCNC(=O)NCCCCCCNC(=O)NCCSc1ccccc1O)/C(C)=C\C
- inhibition at 8.1 µM (Norovirus [19]): 59.3%
- CC50 [10]: 113 µM

- pEC50 (Norovirus [1]): 5.66
- pEC50 (Norovirus [2]): 4.81
- pEC50 (Norovirus [3]): 4.72
- pEC50 (Norovirus [4]): < 4.00
- pEC50 (Norovirus [5]): < 4.00
- pEC50 (Norovirus [6]): < 4.00
- pEC50 (Norovirus [7]): 5.17
- solubility [8]: 400 µM
- pEC50 (Norovirus [9]): 5.24
Structure (SMILES): CCC[n+]1cc(-c2ccccc2)nc(N2CCOCC2)n1.[I-]
- CC50 [10]: 158 µM
- inhibition at 2.2 µM (Norovirus [11]): 49.3%
